# Measured values from patent US9775831B2, “Combinations comprising biphenyl derivatives for use in the treatment of HCV” (BRISTOL-MYERS SQUIBB COMPANY, priority 2013, dated 2017).
# System: genotype-1a variant with glutamine 30 changed to glutamate in the NS5A protein
# Assay: HCV replicon cell-based assay, NS5A synergy with BMS-790052
# Settings: genotype 1a Q→E variant; test compound titrated in combination with NS5A-targeting compound (BMS-790052 fixed at 200 nM)
# Description: The NS5A synergistic inhibitory effect of test compounds can be determined using various amounts of an NS5A-targeting compound with titration of a second compound of interest. […] In one embodiment, the HCV genotype strain can be genotype 1a containing a change at amino acid 30 of the NS5A protein consisting of glutamine to glutamate. The test compound can be chosen from compounds listed above or from others present in the literature.
row,SMILES,Fold Synergistic (1a-QE)
1,CC(C)(C)NC(=O)C(c1ncc(-c2ccc(-c3ccc(-c4cnc(C(C(=O)NC(C)(C)C)C(C)(C)C)[nH]4)cc3)cc2)[nH]1)C(C)(C)C (stereo not shown) [Example B1],>100 Fold
2,CC(C)(C)C(C(=O)Nc1cccc(Cl)c1)c1ncc(-c2ccc(-c3ccc(-c4cnc(C(C(=O)Nc5cccc(Cl)c5)C(C)(C)C)[nH]4)cc3)cc2)[nH]1 (stereo not shown) [Example B2],<10 Fold
3,CCN(CC)C(=O)C(c1ncc(-c2ccc(-c3ccc(-c4cnc(C(C(=O)N(CC)CC)C(C)(C)C)[nH]4)cc3)cc2)[nH]1)C(C)(C)C (stereo not shown) [Example B3],>10 Fold
4,CC(C)(C)C(C(=O)N1CCCC1)c1ncc(-c2ccc(-c3ccc(-c4cnc(C(C(=O)N5CCCC5)C(C)(C)C)[nH]4)cc3)cc2)[nH]1 (stereo not shown) [Example B4],<10 Fold
5,CC(C)(C)C(C(=O)NC1CCCCC1)c1ncc(-c2ccc(-c3ccc(-c4cnc(C(C(=O)NC5CCCCC5)C(C)(C)C)[nH]4)cc3)cc2)[nH]1 (stereo not shown) [Example B5],<10 Fold
6,COC(=O)[C@@H](NC(=O)C[C@@H](CCC(F)(F)F)c1ncc(-c2ccc(-c3ccc(-c4cnc([C@H](CCC(F)(F)F)CC(=O)N[C@H](C(=O)OC)C(C)C)[nH]4)cc3)cc2)[nH]1)C(C)C [Example MD-1],>10 Fold
7,O=C(C[C@@H](CCC(F)(F)F)c1ncc(-c2ccc(-c3ccc(-c4cnc([C@H](CCC(F)(F)F)CC(=O)N5CCC(F)CC5)[nH]4)cc3)cc2)[nH]1)N1CCC(F)CC1 [Example MD-2],>100 Fold
8,CC(C)CNC(=O)C[C@@H](CCC(F)(F)F)c1ncc(-c2ccc(-c3ccc(-c4cnc([C@H](CCC(F)(F)F)CC(=O)NCC(C)C)[nH]4)cc3)cc2)[nH]1 [Example MD-3],>10 Fold
9,CC(C)CNC(=O)C[C@@H](CCC(F)(F)F)c1ncc(-c2ccc(-c3ccc(-c4cnc([C@H](CCC(F)(F)F)CC(=O)O)[nH]4)cc3)cc2)[nH]1 [Example MD-4],<10 Fold
10,CCO[C@H](CC(=O)N(NC(=O)OC)C(C)C)c1ncc(-c2ccc(-c3ccc(-c4cnc([C@@H](CC(=O)N(NC(=O)OC)C(C)C)OCC)[nH]4)cc3)cc2)[nH]1 [Example MD-5],>10 Fold
11,CCO[C@H](CC(=O)NCC(C)C)c1nc(-c2ccc(-c3ccc(-c4c[nH]c([C@@H](CC(=O)NCC(C)C)OCC)n4)cc3)cc2)c[nH]1 [Example MD-6],>10 Fold
12,CC(C)CNC(=O)[C@@H]1OC(C)(C)O[C@H]1c1ncc(-c2ccc(-c3ccc(-c4cnc([C@@H]5OC(C)(C)O[C@H]5C(=O)NCC(C)C)[nH]4)cc3)cc2)[nH]1 [Example MD-7],<10 Fold
13,CC1(C)O[C@@H](C(N)=O)[C@H](c2ncc(-c3ccc(-c4ccc(-c5cnc([C@@H]6OC(C)(C)O[C@H]6C(N)=O)[nH]5)cc4)cc3)[nH]2)O1 [Example MD-9],<10 Fold
14,CC(C)CNC(=O)C[C@@H](C)c1nc(-c2ccc(-c3ccc(-c4c[nH]c([C@H](C)CC(=O)NCC(C)C)n4)cc3)cc2)c[nH]1 [Example MD-11],>100 Fold
15,C[C@H](CC(=O)N1CCC(F)(F)CC1)c1nc(-c2ccc(-c3ccc(-c4c[nH]c([C@H](C)CC(=O)N5CCC(F)(F)CC5)n4)cc3)cc2)c[nH]1 [Example MD-13],>100 Fold
16,CCOC(=O)[C@@H]1OCO[C@H]1c1ncc(-c2ccc(-c3ccc(-c4cnc([C@@H]5OCO[C@H]5C(=O)OCC)[nH]4)cc3)cc2)[nH]1 [Example MD-15],<10 Fold

row,SMILES,Fold Synergistic (1a-QE)
1,CC(C)[C@H](CC(=O)NCC(C)(C)C)c1ncc(-c2ccc(-c3ccc(-c4cnc([C@@H](CC(=O)NCC(C)(C)C)C(C)C)[nH]4)cc3)cc2)[nH]1 [Example MD-18],>10 Fold
2,CC(C)[C@H](CC(=O)NCc1ccccc1Cl)c1ncc(-c2ccc(-c3ccc(-c4cnc([C@@H](CC(=O)NCc5ccccc5Cl)C(C)C)[nH]4)cc3)cc2)[nH]1 [Example MD-19],>100 Fold
3,CCOCC1(CNC(=O)C[C@H](c2ncc(-c3ccc(-c4ccc(-c5cnc([C@@H](CC(=O)NCC6(COCC)CC6)C(C)C)[nH]5)cc4)cc3)[nH]2)C(C)C)CC1 [Example MD-20],>10 Fold
4,C[C@@H]1CN(C(=O)C[C@@H](C)c2ncc(-c3ccc(-c4ccc(-c5cnc([C@H](C)CC(=O)N6C[C@@H](C)O[C@@H](C)C6)[nH]5)cc4)cc3)[nH]2)C[C@H](C)O1 [Example MD-36],>10 Fold
5,C[C@H](CC(=O)NCC1CC1)c1ncc(-c2ccc(-c3ccc(-c4cnc([C@H](C)CC(=O)NCC5CC5)[nH]4)cc3)cc2)[nH]1 [Example MD-38],>100 Fold
6,CC(C)[C@H](CC(=O)NCC(C)(C)O)c1ncc(-c2ccc(-c3ccc(-c4cnc([C@@H](CC(=O)NCC(C)(C)O)C(C)C)[nH]4)cc3)cc2)[nH]1 [Example MD-41],>10 Fold
7,CC(C)(C)CNC(=O)C[C@@H](CCC(F)(F)F)c1ncc(-c2ccc(-c3ccc(-c4cnc([C@H](CCC(F)(F)F)CC(=O)NCC(C)(C)C)[nH]4)cc3)cc2)[nH]1 [Example MD-55],<10 Fold
8,CC(C)N(C(=O)C[C@@H](CCC(F)(F)F)c1ncc(-c2ccc(-c3ccc(-c4cnc([C@H](CCC(F)(F)F)CC(=O)N(C(C)C)C5CC5)[nH]4)cc3)cc2)[nH]1)C1CC1 [Example MD-56],<10 Fold
9,CC(C)NC(=O)C[C@@H](CCC(F)(F)F)c1ncc(-c2ccc(-c3ccc(-c4cnc([C@H](CCC(F)(F)F)CC(=O)N(C(C)C)C5CC5)[nH]4)cc3)cc2)[nH]1 [Example MD-57],>10 Fold
10,COC(=O)NN(C(=O)[C@@H]1OC(C)(C)O[C@H]1c1ncc(-c2ccc(-c3ccc(-c4cnc([C@@H]5OC(C)(C)O[C@H]5C(=O)N(NC(=O)OC)C(C)C)[nH]4)cc3)cc2)[nH]1)C(C)C [MD-8],<10 Fold
11,CC1(C)O[C@@H](C(N)=O)[C@H](c2ncc(-c3ccc(-c4ccc(-c5coc([C@@H]6OC(C)(C)O[C@H]6C(N)=O)n5)cc4)cc3)[nH]2)O1 [MD-10],<10 Fold
12,COC(=O)NN(C(=O)C[C@@H](C)c1nc(-c2ccc(-c3ccc(-c4c[nH]c([C@H](C)CC(=O)N(NC(=O)OC)C(C)C)n4)cc3)cc2)c[nH]1)C(C)C [MD-12],>10 Fold
13,CC(C)CNC(=O)[C@@H]1OCO[C@H]1c1ncc(-c2ccc(-c3ccc(-c4cnc([C@@H]5OCO[C@H]5C(=O)NCC(C)C)[nH]4)cc3)cc2)[nH]1 [MD-14],<10 Fold
14,COC(=O)NN(C(=O)[C@@H]1OCO[C@H]1c1ncc(-c2ccc(-c3ccc(-c4cnc([C@@H]5OCO[C@H]5C(=O)N(NC(=O)OC)C(C)C)[nH]4)cc3)cc2)[nH]1)C(C)C [MD-17],<10 Fold
15,CC(C)[C@H](CC(=O)NC[C@@H]1CC[C@H]2C[C@@H]1C2(C)C)c1ncc(-c2ccc(-c3ccc(-c4cnc([C@@H](CC(=O)NC[C@@H]5CC[C@H]6C[C@@H]5C6(C)C)C(C)C)[nH]4)cc3)cc2)[nH]1 [MD-21],>100 Fold
